In patent US11446304B2, “CDC-7-inhibitor compounds and use thereof for the treatment of neurological conditions” (CONSEJO SUPERIOR DE INVESTIGACIONES CIENTIFICAS (CSIC), priority 2017, dated 2022):

Legend:
[1] = tested on: TDP-43 phosphorylation (S409/410); test: Effect on phosphorylation of TDP-43 (western blot); assay type: cell-based, human; details: SH-SY5Y cells, 24 h incubation with ethacrynic acid, FIG. 3
Description: FIG. 3. Sample of the effect of CDC7 inhibitors (compounds 1, 8, 9 and 13) on TDP-43 phosphorylation. Quantification and representation of phosphorylated TDP-43 levels by western blot.
To evaluate the levels of TDP-43 phosphorylated in the presence of CDC7 inhibitors (compounds 1 and 8), the cells after 24 h of incubation with ethacrylic acid were washed with PBS and then cold lysed with lysis buffer (50 mM Tris pH 7.4, 150 mM NaCl, 50 mM NaF, 1% Nonidet P-40 and Protease and phosphatase inhibitors (Roche)). The collected cell extracts were centrifuged for 10 minutes at 4,000 rpm. Protein quantification was performed with the Pierce BCA protein assay kit (Thermo Scientific). 10 μg of protein were loaded into the polyacrylamide gel with SDS and subsequently transferred to a polyvinylidene fluoride (PVDF) membrane (Millipore).

[2] = tested on: human SH-SY5Y neuroblastoma cells; test: Neuroprotective effect against ethacrynic acid, cell viability by MTT; assay type: cell-based; details: ethacrynic acid 20 μM for 12 hours, inhibitors at 10 μM, FIG. 2
Description: FIG. 2. […] The data represent the mean of four different±SEM experiments (*p<0.05).
The human neuroblastoma cell line SH-SY5Y was cultured at 37° C. with 5% CO2 in DMEN medium (Dulbecco's Modified Eagle Medium) enriched with L-glutamine (2 mM), 1% non-essential amino acids, 1% Penicillin/Estreptomycin and 10% fetal bobin serum. In the semiconfluence state, the cells were treated with CDC7 inhibitors (compounds 1 and 8) at different concentrations for 1.30 hours post-addition of the causative agent of TPD-43 phosphorylation; ethacrynic acid ([…]) (Sigma). […] J Immunol Methods. 1987; 89:271-7) and levels of western blot phosphorylated TDP-43 (FIG. 2).

human recombinant CDC7 = target: T1, human recombinant CDC7 (Homo sapiens, UniProt O00311); test: CDC7 inhibition measurement (ADP-Glo technology); assay type: biochemical; details: ATP 10 μM, 60 min at room temperature; read-out: CDC7 ADP-Glo ™ CI50
T1 construct: purchased Promega V5089
Description: The method used is a non-radioactive enzyme inhibition assay using human recombinant CDC7. It is based on luminometric quantification of inhibition using the ADP-Glo™ Kinase Kit. In this test the luminescent signal correlates positively with the amount of adenosine diphosphate (ADP) and the activity of the kinase. […]
CDC7 enzyme inhibition studies were conducted using the promega kit: ADP-Glo™ Kinase Assay+CDC7/DBF4 Kinase Enzyme System (Catalogue No. V5089). ATP and other reagents were purchased in Sigma-Aldrich (St. Louis, Mo.). The trials were performed in a buffer solution using 96-well plates. The compound to be tested (5 μL, 40 μM dissolved in DMSO 4%) was added to each well followed by the enzyme (5 μL, 25 ng/well), ATP (5 μL, final concentration in well 10 μM) and PDKtidE (5 μL, 4 μg/well). It was then incubated for 60 minutes at room temperature and the reagent ADP-Glo™ (20 μL) was added and incubated again for 40 min at room temperature. After incubation, the kinase detection agent (40 μL) was added and incubated for 30 min at room temperature. Finally, the luminescence (integration time of 0.5-1 sec) was measured using a POLARstar Optima multimode reader polarimeter. Inhibition activities were calculated as a function of maximum activity, measured in the absence of inhibitor.

[3] = target: human recombinant CDC7/DBF4 (Homo sapiens, UniProt O00311); test: CDC7 inhibition measurement (LanthaScreen Eu kinase binding, FRET); details: CDC7/DBF4 0.5 nM, 60 min at room temperature; read-out: CDC7 Lantha ™ CI50
Excerpt: The LanthaScreen Eu kinases inhibition assay uses an Alexa marker Fluor™ that binds to a kinase and is detected by the addition of an Eu-marked antibody. The binding of the marker and the antibody to the kinase results in a high degree of FRET, while the displacement of the marker by an inhibitor results in a loss of FRET. Unlike many other kinase activity tests, this is a simple mix and read test, with no developmental stages. This test method has been developed by Life Technologies and identifies competitive ATP kinase inhibitors, making them suitable for the detection of any compound that binds to the ATP site.
The compounds are evaluated at 1% DMSO (final) in the well. A mixture of human recombinant CDC7/DBF4 (0.5 nM), Eu-antiGST antibody (2 nM) and AlexaFluor marker (1 nM) has been used in a buffer of 50 mM HEPES pH 7.5, 0.01% BRIJ-35, 10 mM MgCl2, 1 mM EGTA in white plates of […], low volume, coded (Greiner cat. #784207), 160 nL (100×100% DMSO compound), 3.84 μL (buffer with CDC7/DBF4), 8.0 μL (antibody), 4.0 μL (marker) are added. Agitate 30 s and incubate at room temperature for 60 min. Then measure the fluorescence in the plate reader and analyze the data (Table 1).

[4] = PAMPA blood-brain barrier permeation (porcine brain lipid); assay type: in vitro ADME; details: for Papp at 2.5 h: PAMPA-BHE, PBS pH 7.4/EtOH 70:30, 2 h 30 min at 25° C., mean ± SD, read-out: Pe; for PAMPA prediction of central nervous system (CNS) penetration: from Pe in PAMPA-BHE
Excerpt: An essential requirement for drugs for the treatment of neurodegenerative diseases is the ability to cross the blood-brain barrier (BBB), as otherwise they could not act on the target of interest. Therefore, for compounds that are not permeable or located in the area of uncertainty, it may be necessary to properly convey a pharmaceutical formulation through methods known to an expert in the field, such as encapsulation. This capability can be predicted in vitro using a method known by the acronym PAMPA (Parallel Artificial Membrane Permeability Assay) described by Di et al (Di, L.; Kerns, E. H.; Fan, K.; McConnell, O. J.; Carter, G. T. Eur. J. Med. Chem. 2003, 38 (3), 223-232) and which has subsequently been fine-tuned in our research group. This method allows predicting the effective permeability through artificial membranes by means of a passive diffusion process.
First of all, it is necessary to validate the method, for which 10 commercial compounds are used whose penetration capacity in the central nervous system (CNS) is known and which are to be specified below, obtaining in this case a good linear correlation between the experimental permeability values (Pe) and those described (FIG. 1). This correlation line obtained following the pattern described in the bibliography allows establishing the limits to predict whether or not a compound can cross the blood-brain barrier. Thus, a compound is considered BBB permeable (SNC+) if it has a permeability>4.48×10^−6 cm-s^−1.
For the procedure, between 3-5 mg of caffeine, desipramine, enoxacin, hydrocortisone, ofloxacin, piroxicam and testosterone, 12 mg of promazine and 25 mg of atenolol and verapamil were taken and dissolved in EtOH (1000 μL). 100 μL of these solutions were taken and EtOH (1400 μL) and phosphate buffer (PBS) pH=7.4 (3500 μL) were added in order to achieve a final EtOH concentration of 30% v/v in solution. Finally, the dissolutions were filtered.
On the other hand, a PBS/EtOH solution (70:30) was added to each well of the acceptance plate (180 μL). The donor plate was impregnated with a porcine brain lipid solution (4 μL) dissolved in dodecane (20 mg mL^−1). After 5 min, dissolution of each compound was added to this plate (180 μL).
Of the compounds 1 to 10 evaluated, 1-2 mg were taken and dissolved in EtOH (1500 μL) and phosphate buffer (PBS) pH=7.4 (3500 μL), filtered and added to the donor plate. With these solutions, the wavelengths at which the compounds absorb are determined and the initial absorbance levels at these wavelengths are measured using a UV absorbance reader. Each sample was analyzed from two to five wavelengths, in three wells and in two independent experiments.
The donor plate was then deposited on the acceptor forming a kind of “sandwich” and incubated for 2 hours and 30 minutes at 25° C. In this way, the compounds will pass from the donor plate to the acceptor plate through the porcine brain lipid by passive diffusion. After that time, the donor plate is carefully removed and the concentration and final absorbance of both commercial and synthesized compounds is determined. The results obtained are expressed as the mean of the measurements [standard deviation (SD)] of the different experiments carried out and are shown in table 2.

human recombinant CDC7/DBF4, sequence (O00311 whole entry): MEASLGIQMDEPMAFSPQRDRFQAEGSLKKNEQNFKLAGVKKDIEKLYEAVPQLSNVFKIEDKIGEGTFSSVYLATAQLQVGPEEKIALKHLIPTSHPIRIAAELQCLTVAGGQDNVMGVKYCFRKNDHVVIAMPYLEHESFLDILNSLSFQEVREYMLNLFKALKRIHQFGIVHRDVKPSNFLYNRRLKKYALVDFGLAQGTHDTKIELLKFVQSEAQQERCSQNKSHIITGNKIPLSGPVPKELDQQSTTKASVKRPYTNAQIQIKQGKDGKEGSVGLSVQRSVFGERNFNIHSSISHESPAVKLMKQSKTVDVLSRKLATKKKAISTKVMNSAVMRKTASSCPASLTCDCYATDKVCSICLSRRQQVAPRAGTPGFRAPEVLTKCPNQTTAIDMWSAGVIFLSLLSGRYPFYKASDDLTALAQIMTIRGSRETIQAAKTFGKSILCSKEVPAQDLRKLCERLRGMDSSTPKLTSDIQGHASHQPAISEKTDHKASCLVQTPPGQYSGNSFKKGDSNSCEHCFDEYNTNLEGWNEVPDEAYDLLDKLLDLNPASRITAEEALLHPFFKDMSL
human recombinant CDC7/DBF4, sequence (Q9UBU7 whole entry partner): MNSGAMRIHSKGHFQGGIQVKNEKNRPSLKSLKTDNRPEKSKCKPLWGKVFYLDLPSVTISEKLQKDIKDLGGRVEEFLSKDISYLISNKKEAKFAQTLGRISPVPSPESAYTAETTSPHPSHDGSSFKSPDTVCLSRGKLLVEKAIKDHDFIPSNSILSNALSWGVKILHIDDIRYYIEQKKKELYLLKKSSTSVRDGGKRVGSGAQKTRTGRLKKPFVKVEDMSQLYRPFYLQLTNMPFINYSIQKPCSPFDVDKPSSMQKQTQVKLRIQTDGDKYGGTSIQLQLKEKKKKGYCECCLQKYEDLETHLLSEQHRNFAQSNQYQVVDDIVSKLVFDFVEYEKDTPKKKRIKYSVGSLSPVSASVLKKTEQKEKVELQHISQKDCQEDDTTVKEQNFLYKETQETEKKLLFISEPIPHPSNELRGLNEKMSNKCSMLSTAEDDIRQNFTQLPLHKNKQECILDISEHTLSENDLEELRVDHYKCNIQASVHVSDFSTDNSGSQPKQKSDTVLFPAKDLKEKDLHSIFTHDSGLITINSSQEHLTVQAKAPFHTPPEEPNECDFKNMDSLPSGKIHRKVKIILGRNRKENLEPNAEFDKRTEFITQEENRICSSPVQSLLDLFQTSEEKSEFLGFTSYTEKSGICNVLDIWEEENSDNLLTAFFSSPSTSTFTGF
T1 sequence (O00311 whole entry): as the sequence (O00311 whole entry) above
T1 sequence (Q9UBU7 whole entry partner): as the sequence (Q9UBU7 whole entry partner) above

SMILES	phosphorylated TDP-43 levels [1]	neuroprotective effect (cell viability) [2]	IC50 (human recombinant CDC7) [nM]	IC50 [3] [nM]	Papp at 2.5 h [4] [×10⁻⁶ cm/s]	PAMPA prediction of central nervous system (CNS) penetration [4]	melting point [°C]
Clc1cccc(CSc2ncnc3[nH]cnc23)c1 [Compound 8, 6-((3-Chlorobenzyl)thio)-9H-purine]	reduce phosphorylation of TDP-43	neuroprotective effect	5210 ± 380	172	15.1 ± 0.6	SNC+ (a compound is considered BBB permeable (SNC+) if it has a permeability>4.48×10^−6 cm-s^−1)	167 to 169
c1ccc(CSc2ncnc3[nH]cnc23)cc1 [Compound 1, 6-(benzylthio)-9H-purine]	reduce phosphorylation of TDP-43	neuroprotective effect	6740 ± 350	125	6.2 ± 1.1	SNC+ (a compound is considered BBB permeable (SNC+) if it has a permeability>4.48×10^−6 cm-s^−1)	–
Brc1ccccc1CSc1ncnc2[nH]cnc12 [Compound 13, 6-((2-bromobenzyl)thio)-9H-purine]	–	neuroprotective effect	6240 ± 990	275	13.1 ± 0.1	SNC+ (a compound is considered BBB permeable (SNC+) if it has a permeability>4.48×10^−6 cm-s^−1)	209 to 211
Ic1cccc(CSc2ncnc3[nH]cnc23)c1 [Compound 9, 6-((3-Iodobenzyl)thio)-9H-purine]	–	neuroprotective effect	3340 ± 270	86	13.8 ± 2.5	SNC+ (a compound is considered BBB permeable (SNC+) if it has a permeability>4.48×10^−6 cm-s^−1)	185 to 187
